Results reported in patent US7384966B2, “2-arylbenzothiazole derivatives” (Pharminxo Limited, priority 2004, dated 2008).
Like-named read-outs stand apart in the source and are kept apart here.

Columns and labels:
KM 12 = assay: MTT assay, 3 day exposure, KM12; assay type: cell-based, human; details: KM 12 (colon), read-out: GI50 values in cell lines, KM 12
Protocol: (§1) A range of compounds were evaluated in MTT assays following 3 day exposure against a panel of two human breast cancer cell lines MCF-7 (ER+) and MDA 468 (ER−), and two colon cancer cell lines KM12 and HCC 2998. In general the breast cell lines were more sensitive to the agents and the MDA 468 line the most sensitive of the four (Table 2). The benchmark active compound was 5-fluoro-2-(3,4-dimethoxyphenyl)benzothiazole (1) with GI50 values<0.1 nM against the two breast cell lines. […] The most interesting series of compounds were those combining a 5-fluoro group with two oxygenated substituents in the 3′,4′-positions where minor, seemingly conservative, structural changes were associated with a dramatic variations in activity (when compared to 1). […] In summary, this in vitro screen led to the identification of the fluorinated 2-(3,4-dimethoxyphenyl)benzothiazole structure as a novel antitumor pharmacophore with the 5-fluoro analogue (1) astride a pinnacle of activity.
(§2) The assays/methods used to generate the results referred to herein are well known to those skilled in the art and therefore it has not been necessary to describe them in detail.

MDA 468 = assay: MTT assay, 3 day exposure, MDA 468; assay type: cell-based; details: Homo sapiens, MDA 468 (breast), read-out: GI50 values in cell lines, MDA 468
Protocol: as §1, §2

HCC 2998 = assay: MTT assay, 3 day exposure, HCC 2998; assay type: cell-based; details: Homo sapiens, read-out: GI50 values in cell lines, HCC 2998
Protocol: as §1, §2

MCF-7 = assay: MTT assay, 3 day exposure, MCF-7; assay type: cell-based; details: Homo sapiens, read-out: GI50 values in cell lines, MCF-7
Protocol: as §1, §2

[1] = test system: MCF-7, MDA 468, KM12 and HCC 2998; assay: MTT assay, panel of four cell lines, results in words; assay type: cell-based, human; details: compared to compound 1
Protocol: as §1

[2] = Homo sapiens, KM12, 72 h, MTT, 3 day exposure, triplicate
[3] = 72 h, MTT, 3 day exposure, triplicate
[4] = HCC 2998, 72 h, HCC 2998 (colon), MTT, 3 day exposure, triplicate
[5] = MCF7, 72 h, MCF-7 (breast), MTT, 3 day exposure, triplicate
[6] = MCF7, MCF-7 (breast), value in nM

Row | GI50 (HCC 2998; [4]) | GI50 (MCF-7; [5]) | melting point | GI50 (MCF-7; [6]) | GI50 (HCC 2998; HCC 2998, HCC 2998 (colon), value in nM) | Structure (SMILES) | GI50 (KM 12; [2]) | GI50 (MDA 468; [3]) | GI50 (MDA 468; value in nM) | growth inhibitory potency in words [1] | GI50 (KM 12; value in nM)
1 | 2500 nM | 760 nM | – | – | – | COc1ccc(-c2nc3cc(F)ccc3s2)cc1Cl [Compound 26, 5-fluoro 2-(3-Chloro-4-methoxyphenyl)benzothiazole] | 7050 nM | 480 nM | – | – | –
2 | 540 nM | 48 nM | 120 °C | – | – | COc1ccc(-c2nc3cc(F)ccc3s2)cc1C [Compound 22, 5-Fluoro-2-(4-methoxy-3-methylphenyl)benzothiazole] | 18600 nM | 58 nM | – | – | –
3 | 7530 nM | – | 170 °C | 0.085 nM | – | COc1ccc(-c2nc3cc(F)ccc3s2)cc1OC(=O)N1CCOCC1 [Compound 19, 5-Fluoro-2-[3-(morpholin-4-ylcarbonyloxy)-4-methoxyphenyl]benzothiazole] | 7140 nM | – | 0.64 nM | – | –
4 | 940 nM | 820 nM | 167 °C | – | – | COc1ccc(-c2nc3cc(F)ccc3s2)cc1I [Compound 28, 5-Fluoro-2-(3-iodo-4-methoxyphenyl)benzothiazole] | 6900 nM | 360 nM | – | – | –
5 | – | – | 198 °C | – | – | COc1ccc(-c2nc3cc(F)ccc3s2)cc1OC(=O)c1ccc([N+](=O)[O-])cc1 [Compound 18, 5-Fluoro-2-[3-(4-nitrobenzoyloxy)-4-methoxyphenyl]benzothiazole] | – | – | – | – | –
6 | – | – | 160 °C | – | – | COc1ccc(-c2nc3cc(F)ccc3s2)cc1OC(=O)c1ccccc1 [Compound 14, 2-(3-Benzoyloxy-4-methoxyphenyl)-5-fluorobenzothiazole] | – | – | – | – | –
7 | – | – | 150 °C | – | – | CCC(=O)Oc1cc(-c2nc3cc(F)ccc3s2)ccc1OC [Compound 13, 5-Fluoro-2-(3-propionyloxy-4-methoxyphenyl)benzothiazole] | – | – | – | – | –
8 | 3450 nM | 850 nM | 173 to 175 °C | – | – | COc1ccc(-c2nc3cc(F)ccc3s2)cc1Br [Compound 27, 2-(3-Bromo-4-methoxyphenyl)-5-fluorobenzothiazole] | 6700 nM | 420 nM | – | – | –
9 | – | – | 156 °C | – | – | COc1cc(-c2nc3cc(F)ccc3s2)ccc1O [Compound 6, 5-Fluoro-2-(4-hydroxy-3-methoxyphenyl)benzothiazole] | – | – | – | dyschemotherapeutic effect | –
10 | – | – | 190 °C | – | – | COc1ccc(-c2nc3cc(F)ccc3s2)cc1OC(=O)c1ccccc1Cl [Compound 15, 2-[3-(2-Chlorobenzoyloxy)-4-methoxyphenyl]-5-fluorobenzothiazole] | – | – | – | – | –
11 | – | – | 220 to 223 °C | – | – | COc1ccc(-c2nc3cc(F)ccc3s2)cc1OC(=O)c1ccccc1Br [Compound 16, 2-[3-(2-Bromobenzoyloxy)-4-methoxyphenyl]-5-fluorobenzothiazole] | – | – | – | – | –
12 | 7600 nM | 500 nM | 169 to 172 °C | – | – | COc1ccc(-c2nc3cc(F)ccc3s2)cc1O [Compound 5, 5-Fluoro-2-(3-hydroxy-4-methoxyphenyl)benzothiazole] | 18400 nM | 50 nM | – | dyschemotherapeutic effect | –
13 | – | – | 125 °C | – | – | CCCC(=O)Oc1cc(-c2nc3cc(F)ccc3s2)ccc1OC [Compound 47, 2-(3-Butyroyloxy-4-methoxyphenyl)-5-fluorobenzothiazole] | – | – | – | – | –
14 | – | – | 212 °C | – | – | COc1ccc(-c2nc3cc(F)ccc3s2)cc1OC(=O)c1cccc([N+](=O)[O-])c1 [Compound 17, 5-Fluoro-2-[3-(3-nitrobenzoyloxy)-4-methoxyphenyl]benzothiazole] | – | – | – | – | –
15 | 13700 nM | 870 nM | 157 to 159 °C | – | – | COc1ccc(-c2nc3cc(F)ccc3s2)cc1F [Compound 25, 5-Fluoro-2-(3-fluoro-4-methoxyphenyl)benzothiazole] | 20600 nM | 640 nM | – | – | –
16 | 3320 nM | 80 nM | 136 to 139 °C | – | – | CCOc1cc(-c2nc3cc(F)ccc3s2)ccc1OC [Compound 45, 2-(3-Ethoxy-4-methoxyphenyl)-5-fluorobenzothiazole] | 5420 nM | 92 nM | – | dyschemotherapeutic effect | –
17 | – | – | 190 °C | – | – | COc1cc(-c2nc3cc(F)ccc3s2)ccc1OC(=O)c1cccc([N+](=O)[O-])c1 [Compound 21, 5-Fluoro-2-[4-(3-nitrobenzoyloxy)-3-methoxyphenyl]benzothiazole] | – | – | – | – | –

Further lines, the molecule ahead of its results:

Row | Structure (SMILES) | GI50 (HCC 2998; [4]) | GI50 (MCF-7; [5]) | melting point | GI50 (MCF-7; [6]) | GI50 (HCC 2998; HCC 2998, HCC 2998 (colon), value in nM) | GI50 (KM 12; [2]) | GI50 (MDA 468; [3]) | GI50 (MDA 468; value in nM) | growth inhibitory potency in words [1] | GI50 (KM 12; value in nM)
18 | COc1ccc(-c2nc3cc(F)ccc3s2)cc1OC(C)=O [Compound 11, 2-(3-Acetoxy-4-methoxyphenyl)-5-fluorobenzothiazole] | – | – | 190 °C | – | – | – | – | – | – | –
19 | COc1ccc(-c2nc3cc(F)ccc3s2)cc1 [Compound 29, 5-Fluoro-2-(4-methoxyphenyl)benzothiazole] | 12400 nM | 490 nM | 123 to 124 °C | – | – | 24600 nM | 330 nM | – | – | –
20 | COc1ccc(-c2nc3cc(Br)ccc3s2)cc1OC [Compound 24, 5-Bromo-2-(3,4-dimethoxyphenyl)benzothiazole] | 20000 nM | 13600 nM | 157 to 158 °C | – | – | 65200 nM | 770 nM | – | essentially abolished inhibitory potency | –
21 | COCOc1ccc(-c2nc3cc(F)ccc3s2)cc1OC [Compound 44, 5-Fluoro-2-(3-methoxy-4-methoxymethyloxyphenyl)benzothiazole] | 53500 nM | 65 nM | 101 to 102 °C | – | – | 19200 nM | 48 nM | – | dyschemotherapeutic effect | –
22 | CCOc1ccc(-c2nc3cc(F)ccc3s2)cc1OCC [Compound 46, 2-(3,4-Diethoxyphenyl)-5-fluorobenzothiazole] | – | 0.7 nM | 109 to 113 °C | 0.7 nM | – | 38500 nM | 55 nM | – | dyschemotherapeutic effect | –
23 | COc1cc(-c2nc3cc(F)ccc3s2)cc(OC)c1OC [Compound 43, 5-Fluoro-2-(3,4,5-trimethoxyphenyl)benzothiazole] | 21100 nM | 1.9 nM | 120 to 122 °C | – | – | 13000 nM | 2.1 nM | – | retained nanomolar inhibitory potency against the MCF-7 cell and MDA 468 cell lines | –
24 | Oc1ccc(-c2nc3cc(F)ccc3s2)cc1O [Compound 9, 5-Fluoro-2-(3,4-dihydroxyphenyl)benzothiazole] | – | – | 197 °C | – | – | – | – | – | dyschemotherapeutic effect | –
25 | COc1cc(-c2nc3cc(F)ccc3s2)ccc1OC(=O)N1CCOCC1 [Compound 20, 5-Fluoro-2-[4-(morpholin-4-ylcarbonyloxy)-3-methoxyphenyl]benzothiazole] | – | – | 126 °C | – | – | – | – | – | – | –
26 | Fc1ccc2sc(-c3ccc4c(c3)OCO4)nc2c1 [Compound 7, 5-Fluoro-2-(3,4-methylenedioxyphenyl)benzothiazole] | 22300 nM | 20700 nM | 161 to 164 °C | – | – | 25100 nM | 570 nM | – | dyschemotherapeutic effect | –
27 | COc1cc(OC)cc(-c2nc3cc(F)ccc3s2)c1 [Compound 42, 5-Fluoro-2-(3,5-dimethoxyphenyl)benzothiazole] | 5210 nM | 1230 nM | 115 °C | – | – | 7550 nM | 310 nM | – | only low micromolar inhibitory potency | –
28 | COc1ccc(-c2nc3cc(F)ccc3s2)c(OC)c1OC [Compound 50, 2-(2,3,4-Trimethoxyphenyl)-5-fluorobenzothiazole] | – | – | 109 to 110 °C | 157 nM | 203 nM | – | – | 336 nM | – | 2905.3 nM
29 | COc1ccc(-c2nc3cc(Cl)ccc3s2)cc1OC [Compound 23, 5-Chloro-2-(3,4-dimethoxyphenyl)benzothiazole] | 4880 nM | 27900 nM | 154 to 155 °C | – | – | 12400 nM | 1000 nM | – | essentially abolished inhibitory potency | –
30 | COc1ccc(-c2sc3ccc(F)cc3[n+]2[O-])cc1OC [Compound 53, 2-(3,4-Dimethoxyphenyl)-5-fluorobenzothiazole N-oxide] | 40300 nM | 920 nM | 201.4 °C | – | – | > 100000 nM | 760 nM | – | – | –
